Columns and labels:
zebrafish embryos [1] = conditions: cited from earlier work; for apoptosis in zebrafish embryos: in vivo
[2] = test system: wild-type zebrafish embryos; conditions: in vivo
[3] = test system: crash & burn (SQW 226) mutant zebrafish embryos; test: chemical suppressor screen: whole mount P-H3 immunostaining of crash & burn embryos; assay type: in vivo, zebrafish (Danio rerio)
[4] = test system: cds mutant zebrafish embryos; test: rescue of polyploid zebrafish mutant cds; conditions: in vivo
From the text: FIGS. 6A-6E show the ability of 8G16 to rescue a crash&burn (crb) zebrafish mutant (FIGS. 6B, untreated crb mutant and 6D 8G16 treated crb mutant) but not another polyploid zebrafish mutant cds (FIGS. 6C, untreated cds mutant and 6E, 8G16 treated cds mutant) compared to a wild-type, untreated embryo (FIG. 6A).

zebrafish embryos [5] = test: FACS analysis of the cell cycle of cells from treated embryos; assay type: in vivo; conditions: embryos treated with 10 and 100 μM 8G16
From the text: Flow cylometric cell sorting analysis of zebrafish embryos to identify defects in cell cycle: To analyze the DNA content of the embryos wild-type and mutant embryonic cells were subjected to DNA flow cytometric cell sorting (FACS). We have shown that the FACS analysis of DNA content can be performed on cells from a single embryo allowing analysis and comparison of mutant and wild-type cell cycle phenotypes.
Embryos were anesthetized with tricaine (3-amino benzoic acid ethylester also called ethyl m-aminobenzoate, in a powdered form from Sigma, Cat.# A-5040). Tricaine solution for anesthetizing fish was prepared by combining the following: 400 mg tricaine powder, 97.9 ml DD water, and about 2.1 ml 1 M Tris (pH 9), pH was adjusted to about 7. Before use 4.2 ml of Tricaine solution was mixed with 100 ml clean tank water.
The embryos were dechorionated as described above and resuspended in a small volume of DMEM −20% FBS in a microtube. Embryos were disaggregated and resuspend in 1-2 ml of DMEM+20% FBS. The solution was passed through 105 μm mesh, and consequently 40 μm mesh. The total volume was raised to 5 ml and the cells' in the sample was counted using hemocytometer. Volume equaling 2×10^6 cells was transferred in 15 ml conical tube and filled to a total volume of 5 ml with PBS. The sample was spinned at 1200 rpm for 10 minutes and the liquid was aspirated off. […]

[6] = test system: zebrafish (wild-type and SQW mutant strains); conditions: in vivo
[7] = 9-20 μM, 24 hours of development

## CC[C@@]1(O)C(=O)OCc2c1cc1n(c2=O)Cc2cc3ccccc3nc2-1 [camptothecin]
Zebrafish embryos [1]
  apoptosis in zebrafish embryos: cause apoplosis

## NC(=O)NO [hydroxyurea]
Zebrafish embryos [1]
  apoptosis in zebrafish embryos: cause apoplosis

## O=C(O)CCCC(=O)Nc1cc(C(F)(F)F)ccc1Cl [Compound 11, 4-(2-Chloro-5-trifluoromethyl-phenylcarbamoyl)-butyric acid]
[2]
  P-H3 staining in wildtype embryos: increase

## O=C(c1ccccc1)C1C(=O)C2C=CC=CC2C1=O (stereo not shown) [Compound 4, 2-Benzoyl-3a,7a-dihydro-indene-1,3-dione]
[3]; zebrafish, in vivo
  P-H3 staining in crash and burn embryos: decrease
[2]
  P-H3 staining in wildtype embryos: decrease

## CNc1ccc2oc(C[C@H]3O[C@@]4(CC[C@H]3C)O[C@H]([C@H](C)C(=O)c3ccc[nH]3)[C@H](C)C[C@H]4C)nc2c1C(=O)O [A23187]
Zebrafish embryos [1]; metaphase arrested cells
  fate of metaphase arrested cells: driven into G1

## C=CCOc1c(Br)cc(S(=O)(=O)c2cc(Br)c(O)c(Br)c2)cc1Br [Compound 2, 4-(4-Allyloxy-3,5-dibromo-benzenesulfonyl)-2,6-dibromo-phenol]
[3]; zebrafish, in vivo
  P-H3 staining in crash and burn embryos: decrease
[2]
  P-H3 staining in wildtype embryos: decrease

## COC(=O)CCC(=O)Nc1ccccc1Cl [Compound 10, N-(2-Chloro-phenyl)-succinamic acid methyl ester]
[2]
  P-H3 staining in wildtype embryos: increase

## Cc1ccccc1OCC(=O)Nc1ccccc1C(=O)O [Compound 9, 2-(2-o-Tolyloxy-acetylamino)-benzoic acid]
[3]; zebrafish, in vivo
  P-H3 staining in crash and burn embryos: decrease
[2]
  P-H3 staining in wildtype embryos: decrease

## Nc1cc([N+](=O)[O-])ccc1NNC(=O)Nc1ccccc1 [Compound 7, 1-(2-Amino-4-nitro-phenylamino)-3-phenyl-urea]
[3]; zebrafish, in vivo
  P-H3 staining in crash and burn embryos: decrease
[2]
  P-H3 staining in wildtype embryos: decrease

## N=c1ccccn1CC(=O)c1ccc(Cl)c(Cl)c1 [Compound 8, 1-(3,4-Dichloro-phenyl)-2-(2-imino-2H-pyridin-1-yl)-ethanone]
[3]; zebrafish, in vivo
  P-H3 staining in crash and burn embryos: decrease
[2]
  P-H3 staining in wildtype embryos: decrease

## Cc1cc(O)c(C(=O)C=Cc2ccc(O)cc2)c(=O)o1 [Compound 3, 4-Hydroxy-3-[3-(4-hydroxy-phenyl)-acryloyl]-6-methyl-pyran-2-one]
[3]; zebrafish, in vivo
  P-H3 staining in crash and burn embryos: decrease
[2]
  P-H3 staining in wildtype embryos: decrease

## O=C(Nc1ncccc1O)C12CC3CC(CC(C3)C1)C2 [8G16, Adamantane-1-carboxylic acid (3-hydroxy-pyridin-2-yl)-amide]
[3]; 10 μM 8G16, P-H3 antibody staining, genotype still crb
  phenotypic appearance of crash & burn: prevents
[3]; [7]
  P-H3 staining of treated embryos: normal
  developmental delay of treated embryos: slight developmental delay
[3]; doses of 9, 12, 16 and 20 μM, 30-60 embryos at each dose
  crash & burn mutants detected at 24 hours of development: no crash & burn mutants were detected
[3]; through 24 hours of development
  crash and burn cell cycle phenotype: prevents
[3]; zebrafish, in vivo
  rescue of crash&burn (crb) zebrafish mutant: rescue
[4]
  rescue of polyploid zebrafish mutant cds: not
Zebrafish embryos [5]
  cell cycle phase distribution: accumulation of cell in the G1/S phase
[2]
  effect on normal embryos: without affecting
  toxicity or cell cycle affects on wild-type embryos: without overt toxicity or cell cycle affects

## Cc1ccc(S(=O)(=O)Oc2ccc([N+](=O)[O-])cc2[N+](=O)[O-])cc1 [Compound 5, Toluene-4-sulfonic acid 2,4-dinitro-phenyl ester]
[3]; zebrafish, in vivo
  P-H3 staining in crash and burn embryos: decrease
[2]
  P-H3 staining in wildtype embryos: decrease

## O=C(Nc1cc(S(=O)(=O)c2ccc(Cl)cc2)ccc1Cl)c1cc(I)cc(I)c1O [Compound 6, 3,5-Diiodo-N-[2-chloro-5-(4-chloro-benzenesulfonyl)-phenyl]-2-hydroxy-benzamide]
[3]; zebrafish, in vivo
  P-H3 staining in crash and burn embryos: decrease
[2]
  P-H3 staining in wildtype embryos: decrease

## C[C@@]1(CO)[C@H](O)CC[C@@]2(C)[C@H]1CC[C@H]1C[C@@H]3C[C@@]12CC[C@]3(O)CO [aphidicolin, reference compound]
Zebrafish embryos [1]
  apoptosis in zebrafish embryos: cause apoplosis
[3]; offspring of crash & burn heterozygotes raised in the presence of the chemical
  P-H3 staining in all embryos, including crash & burn: decreased

## COC(=O)Nc1nc2ccc(C(=O)c3cccs3)cc2[nH]1 [nocodazole]
Zebrafish embryos [1]; post-MBT embryos
  effect of treating post-MBT embryos: metaphase arrest and apoptosis

## O=C(O)c1cc([N+](=O)[O-])c(Nc2cccc3ccccc23)c([N+](=O)[O-])c1 [Compound 12, 4-(Naphthalen-1-ylamino)-3,5-dinitro-benzoic acid]
[2]
  P-H3 staining in wildtype embryos: increase

## CC1=CCC2(CO)COC(c3ccccc3O)C1C2 (stereo not shown) [Compound 14, 2-(5-Hydroxymethyl-8-methyl-3-oxa-bicyclo[3.3.1]non-7-en-2-yl)-phenol]
[2]
  P-H3 staining in wildtype embryos: increase

## O=C(CSC1CC(=O)N(c2cccc(Cl)c2)C1=O)Nc1cccc(F)c1 (stereo not shown) [Compound 13, 2-[1-(3-Chloro-phenyl)-2,5-dioxo-pyrrolidin-3-ylsulfanyl]-N-(3-fluoro-phenyl)-acetamide]
[2]
  P-H3 staining in wildtype embryos: increase

## Cc1c2ccccc2c(C)c2c1ccc1ccccc12 [DMBA, 7, 12 Dimethyl benzanlhracene]
[6]
  fish that developed tumors: 10.4%
  tumor types: more brain and liver tumors

## CC(=O)C1=C(C)NC(=O)NC1c1cccc(O)c1 (stereo not shown) [Compound 15, 5-Acetyl-4-(3-hydroxy-phenyl)-6-methyl-3,4-dihydro-1H-pyrimidin-2-one]
[2]
  P-H3 staining in wildtype embryos: increase
